Counter-ions that a name gives are not always drawn. Like-named read-outs stand apart in the source and are kept apart here.
Legend:
SARS-COV-2 = test: microbe, parasite or virus in culture; assay type: cell-based; design: SI (Selectivity Index, CC50/IC50): unit not given here; conditions: for SI (Selectivity Index, CC50/IC50): SARS-COV-2, values >50 assumed to be 50; for IC50: read-out: SARS-COV-2 inhibition (IC50)
in vitro = conditions: African green monkey
[1] = Severe acute respiratory syndrome coronavirus 2, Vero, 24 h
[2] = Severe acute respiratory syndrome coronavirus 2, Vero cells, 24 hours infection

| SMILES | SI (Selectivity Index, CC50/IC50) (SARS-COV-2) | IC50 (SARS-COV-2; [1]) [µM] | CC50 (in vitro) [µM] | IC50 (SARS-COV-2; [2]) [µM] | IC50 (SARS-COV-2) [µM] |
| --- | --- | --- | --- | --- | --- |
| CCCCCCCCN(CCCCCCCC)c1ncc(-c2c3c(cc4cc(OC)c(OC)cc24)COC3=O)cn1.Cl [Example 95, 9-(2-(dioctylamino)pyrimidin-5-yl)-6,7-dimethoxynaphtho[2,3-c]furan-1(3H)-one hydrochloride] | 1.00 | > 50 | > 50 | – | – |
| COc1cc2cc3c(c(-c4cc(C)nc5c(OC)cccc45)c2cc1OC)C(=O)OC3 [Example 149, 6,7-dimethoxy-9-(8-methoxy-2-methylquinolin-4-yl)naphtho[2,3-c]furan-1(3H)-one] | 1.0 | – | > 50 | > 50 | – |
| COc1cc2cc3c(c(-c4ccc5c(O)ccnc5c4C)c2cc1OC)C(=O)OC3 [Example 154, 9-(4-hydroxy-8-methylquinolin-7-yl)-6,7-dimethoxynaphtho[2,3-c]furan-1(3H)-one] | 1.0 | – | > 50 | > 50 | – |
| CCN(CC)c1ccc(-c2c3c(cc4cc(OC)c(OC)cc24)COC3=O)cn1 [Example 160, 9-(6-(diethylamino)pyridin-3-yl)-6,7-dimethoxynaphtho[2,3-c]furan-1(3H)-one] | 60.45 | – | > 50 | 0.83 | – |
| COc1cc2cc3c(c(-c4cc5c(cc4OP(=O)(NCCN4CCOCC4)Oc4ccccc4)OCO5)c2cc1OC)C(=O)OC3 (stereo not drawn) [Example 279, 6-(6,7-dimethoxy-3-oxo-1,3-dihydronaphtho[2,3-c]furan-4-yl)benzo[d][1,3]dioxol-5-yl phenyl (2-morpholinoethyl)phosphoramidate] | 8.21 | 6.09 | > 50 | – | – |
| COc1cc2cc3c(c(-c4cccc(N5CCCCC5)c4)c2cc1OC)C(=O)OC3 [Example 243, 6,7-dimethoxy-9-(3-(piperidin-1-yl)phenyl)naphtho[2,3-c]furan-1(3H)-one] | 3.26 | – | > 50 | 15.3 | – |
| CCN(Cc1cccs1)c1ccc(-c2c3c(cc4cc(OC)c(OC)cc24)COC3=O)cn1 [Example 199, 9-(6-(ethyl(thiophen-2-ylmethyl)amino)pyridin-3-yl)-6,7-dimethoxynaphtho[2,3-c]furan-1(3H)-one] | 25.20 | – | > 50 | 1.98 | – |
| CCN(CC)c1ncc(-c2c3c(cc4cc(OC)c(OC)cc24)COC3=O)cn1 [Example 74, 9-(2-(diethylamino)pyrimidin-5-yl)-6,7-dimethoxynaphtho[2,3-c]furan-1(3H)-one] | 98.94 | – | > 50 | 0.51 | – |
| COc1cc2cc3c(c(-c4cc5c(cc4OC(=O)C(C)(C)C)OCO5)c2cc1OC)C(=O)OC3 [Example 276, 6-(6,7-dimethoxy-3-oxo-1,3-dihydronaphtho[2,3-c]furan-4-yl)benzo[d][1,3]dioxol-5-yl pivalate] | 1.00 | – | > 50 | > 50 | – |
| COc1cc2cc3c(c(-c4ccc(N5CCCCC5)cc4)c2cc1OC)C(=O)OC3 [Example 242, 6,7-dimethoxy-9-(4-(piperidin-1-yl)phenyl)naphtho[2,3-c]furan-1(3H)-one] | 5.45 | – | 10.6 | 1.94 | – |
| COc1cc2cc3c(c(N4CCN(c5ncc(Br)cn5)CC4)c2cc1OC)C(=O)OC3 [Example 131, 9-(4-(5-bromopyrimidin-2-yl)piperazin-1-yl)-6,7-dimethoxynaphtho[2,3-c]furan-1(3H)-one] | 1.44 | – | > 50 | 34.6 | – |
| COc1cc2cc(CO)c(C(=O)NC(C)C)c(-c3cc4c(cc3O)OCO4)c2cc1OC [Example 228, 1-(6-hydroxybenzo[d][1,3]dioxol-5-yl)-3-(hydroxymethyl)-N-isopropyl-6,7-dimethoxy-2-naphthamide] | 1.50 | – | > 50 | 33.4 | – |
| COc1cc2c(OC)c3c(c(-c4ccc5c(c4)OC(F)(F)O5)c2cc1OC)COC3=O [Example 259, 4-(2,2-difluorobenzo[d][1,3]dioxol-5-yl)-6,7,9-trimethoxynaphtho[2,3-c]furan-1(3H)-one] | 1.00 | – | > 50 | > 50 | – |
| COc1cc2cc3c(c(-c4cnc(N(C)Cc5ccc(C)o5)nc4)c2cc1OC)C(=O)OC3 [Example 103, 6,7-dimethoxy-9-(2-(methyl((5-methylfuran-2-yl)methyl)amino)pyrimidin-5-yl)naphtho[2,3-c]furan-1(3H)-one hydrochloride] | 175.17 | 0.29 | > 50 | – | – |
| COc1cc2cc3c(c(-c4cnc(N(C)CC(OC)OC)nc4)c2cc1OC)C(=O)OC3 [Example 94, 9-(2-((2,2-dimethoxyethyl)(methyl)amino)pyrimidin-5-yl)-6,7-dimethoxynaphtho[2,3-c]furan-1(3H)-one] | 10.16 | – | > 50 | 4.92 | – |
| COc1cc2cc3c(c(-c4ccc(N(C)C(=O)C(C)(C)C)nc4)c2cc1OC)C(=O)OC3 [Example 233, N-(5-(6,7-dimethoxy-3-oxo-1,3-dihydronaphtho[2,3-c]furan-4-yl)pyridin-2-yl)-N-methylpivalamide] | 1.00 | – | > 50 | > 50 | – |
| COc1cc2cc3c(c(-c4ccc(N(C)CC5CCCO5)nc4)c2cc1OC)C(=O)OC3 (stereo not drawn) [Example 192, 6,7-dimethoxy-9-(6-(methyl((tetrahydrofuran-2-yl)methyl)amino)pyridin-3-yl)naphtho[2,3-c]furan-1(3H)-one] | 10.08 | – | > 50 | 4.96 | – |
| COc1cc2cc3c(c(-c4ccnc5c(F)cccc45)c2cc1OC)C(=O)OC3 [Example 137, 9-(8-fluoroquinolin-4-yl)-6,7-dimethoxynaphtho[2,3-c]furan-1(3H)-one] | 1.0 | – | > 50 | > 50 | – |
| COc1cc2cc3c(c(-c4cnc(N5CCC[C@H]5C(N)=O)nc4)c2cc1OC)C(=O)OC3 [Example 49, (S)-1-(5-(6,7-dimethoxy-3-oxo-1,3-dihydronaphtho[2,3-c]furan-4-yl)pyrimidin-2-yl) pyrrolidin-2-carboxamide] | 1.00 | – | > 50 | > 50 | – |
| CCN(CC)c1ccc(-c2c3c(cc4cc(OC)c(OC)cc24)COC3=O)cc1 [Example 249, 9-(4-(diethylamino)phenyl)-6,7-dimethoxynaphtho[2,3-c]furan-1(3H)-one] | 100.23 | – | > 50 | 0.5 | – |
| COc1cc2cc3c(c(-c4ccc(N5CCOCC5)nn4)c2cc1OC)C(=O)OC3 [Example 219, 6,7-dimethoxy-9-(6-morpholinopyridazin-3-yl)naphtho[2,3-c]furan-1(3H)-one] | 1.00 | – | > 50 | > 50 | – |
| COc1cc2cc3c(c(-c4ccc(N(C)C)nc4)c2cc1OC)C(=O)OC3 [Example 163, 9-(6-(dimethylamino)pyridin-3-yl)-6,7-dimethoxynaphtho[2,3-c]furan-1(3H)-one] | 885.42 | – | > 50 | 0.06 | – |
| COc1cc2cc3c(c(-c4cnc(N(C)[C@H]5CCc6c(cccc6OC)C5)nc4)c2cc1OC)C(=O)OC3.Cl [Example 96, (S)-6,7-dimethoxy-9-(2-((5-methoxy-1,2,3,4-tetrahydronaphthalen-2-yl)(methyl)amino)pyrimidin-5-yl)naphtho[2,3-c]furan-1(3H)-one hydrochloride] | 27.11 | 1.84 | > 50 | – | – |
| COc1cc2cc3c(c(-c4cnc(N(C)CCC5OCCO5)nc4)c2cc1OC)C(=O)OC3 [Example 158, 9-(2-((2-(1,3-dioxolan-2-yl)ethyl)(methyl)amino)pyrimidin-5-yl)-6,7-dimethoxynaphtho[2,3-c]furan-1(3H)-one] | 7.26 | – | > 50 | 6.89 | – |
| COC(=O)CN(C)c1ncc(-c2c3c(cc4cc(OC)c(OC)cc24)COC3=O)cn1.Cl [Example 90, methyl N-(5-(6,7-dimethoxy-3-oxo-1,3-dihydronaphtho[2,3-c]furan-4-yl)pyrimidin-2-yl)-N-methyl glycinate hydrochloride] | 16.96 | 2.95 | > 50 | – | – |
| COc1cc2cc3c(c(-c4ccc5cc(C(F)(F)F)cc(O)c5c4)c2cc1OC)C(=O)OC3 [Example 153, 9-(8-hydroxy-6-(trifluoromethyl)naphthalen-2-yl)-6,7-dimethoxynaphtho[2,3-c]furan-1(3H)-one] | 1.0 | – | > 50 | > 50 | – |
| COCCN(CCOC)c1ncc(-c2c3c(cc4cc(OC)c(OC)cc24)COC3=O)cn1 [Example 72, 9-(2-(bis(2-methoxyethyl)amino)pyrimidin-5-yl)-6,7-dimethoxynaphtho[2,3-c]furan-1(3H)-one] | 1.64 | – | > 50 | 30.4 | – |
| COc1cc2cc3c(c(-c4ccc5cccnc5c4)c2cc1OC)C(=O)OC3 [Example 118, 6,7-dimethoxy-9-(quinolin-7-yl)naphtho[2,3-c]furan-1(3H)-one] | 257.92 | – | > 50 | 0.19 | – |
| COc1cc2cc3c(c(-c4cnc(N(C)c5ccc(C)c(C)c5)nc4)c2cc1OC)C(=O)OC3.Cl [Example 213, 9-(2-((3,4-dimethylphenyl)(methyl)amino)pyrimidin-5-yl)-6,7-dimethoxynaphtho[2,3-c]furan-1(3H)-one] | 2.81 | – | – | – | 4.41 |
| COc1cc2cc3c(c(-c4cnc(N5CCCC(O)C5)nc4)c2cc1OC)C(=O)OC3.Cl (stereo not drawn) [Example 80] | 4.21 | – | – | – | – |

From patent US20240368104A1, “Novel Dialkoxynaphtho[2,3-C]Furan-1(3H)-One Derivatives and Pharmaceutical Composition For Preventing or Treating Respiratory Disease or SARS-COV-2 Infection Disease, Comprising Same” (priority 2021, published 2024)
